Test: xn = mol fraction of the nth substance listed
Details: 100 kPa

CCCn1cc[n+](C)c1.[Br-] + O
viscosity [mPa·s]
Details | 303.15 K | 313.15 K | 323.15 K | 333.15 K | 343.15 K
x1 = 0.0497 | 1.67 | 1.31 | – | 0.899 | 0.767
x1 = 0.0992 | 3.1 | 2.39 | 1.9 | 1.55 | 1.29
x1 = 0.1984 | 7.88 | 5.81 | 4.46 | 3.53 | 2.81
x1 = 0.4005 | – | 19.6 | 13.9 | 10.2 | 7.82
x1 = 0.5756 | 87.4 | 52.6 | 34 | 23.2 | 16.7

CC[n+]1ccn(C)c1.[Br-] + O
viscosity [mPa·s]
Details | x1 = 0.049 | x1 = 0.0997 | x1 = 0.1466 | x1 = 0.1978 | x1 = 0.2501 | x1 = 0.3881 | x1 = 0.543
303.15 K | – | 2.42 | 3.55 | – | 6.71 | 13 | 28.2
313.15 K | 1.14 | 1.9 | 2.72 | 4.1 | 5.07 | 9.59 | 19.4
323.15 K | 0.944 | 1.57 | 2.21 | 3.27 | 3.99 | 7.31 | 14.3
333.15 K | – | 1.3 | 1.85 | 2.66 | 3.21 | 5.76 | 11.1
343.15 K | 0.688 | 1.12 | 1.53 | 2.2 | 2.65 | 4.59 | 8.6

O + CC[n+]1ccn(C)c1.[Br-]
x2 = 0
Details | viscosity [mPa·s]
313.15 K | 0.684
333.15 K | 0.492

CCCC[n+]1ccn(C)c1.[Br-] + O
viscosity [mPa·s]
Details | x1 = 0.05 | x1 = 0.0992 | x1 = 0.1481 | x1 = 0.1979 | x1 = 0.2517 | x1 = 0.3882
303.15 K | – | – | 5.93 | 8.78 | 12 | –
313.15 K | 1.56 | 2.58 | 4.3 | 6.08 | 8.65 | –
323.15 K | 1.27 | 2.06 | 3.43 | 4.79 | 6.49 | –
333.15 K | – | – | 2.71 | – | – | –
343.15 K | 0.888 | 1.37 | 2.2 | 2.91 | 3.89 | 7.98

O + CCCC[n+]1ccn(C)c1.[Br-]
x2 = 0
Details | viscosity [mPa·s]
313.15 K | 0.684
323.15 K | 0.58
333.15 K | 0.492
343.15 K | 0.429

O + CCCn1cc[n+](C)c1.[Br-]
x2 = 0
Details | viscosity [mPa·s]
303.15 K | 0.834
313.15 K | 0.684
323.15 K | 0.58

Source: a compilation of properties of binary mixtures (doi:10.1021/acs.jced.2c00033)
